Experiments:
[1] = biological target: 5-hydroxytryptamine receptor 1D (Homo sapiens, UniProt P28221)
[2] = biological target: 5-hydroxytryptamine receptor 1B (Homo sapiens, UniProt P28222)
Sequence of 5-hydroxytryptamine receptor 1B (P28222 whole entry): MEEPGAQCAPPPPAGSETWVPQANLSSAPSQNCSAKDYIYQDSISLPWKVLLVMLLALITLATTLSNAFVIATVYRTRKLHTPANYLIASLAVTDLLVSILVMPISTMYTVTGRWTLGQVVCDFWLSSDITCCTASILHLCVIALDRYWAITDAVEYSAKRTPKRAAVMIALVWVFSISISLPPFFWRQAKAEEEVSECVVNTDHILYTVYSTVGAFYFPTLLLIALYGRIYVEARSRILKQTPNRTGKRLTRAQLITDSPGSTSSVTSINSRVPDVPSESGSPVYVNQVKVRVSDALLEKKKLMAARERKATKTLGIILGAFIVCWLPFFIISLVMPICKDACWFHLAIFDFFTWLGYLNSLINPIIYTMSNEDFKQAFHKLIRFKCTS

Sequence of 5-hydroxytryptamine receptor 1D (P28221 whole entry): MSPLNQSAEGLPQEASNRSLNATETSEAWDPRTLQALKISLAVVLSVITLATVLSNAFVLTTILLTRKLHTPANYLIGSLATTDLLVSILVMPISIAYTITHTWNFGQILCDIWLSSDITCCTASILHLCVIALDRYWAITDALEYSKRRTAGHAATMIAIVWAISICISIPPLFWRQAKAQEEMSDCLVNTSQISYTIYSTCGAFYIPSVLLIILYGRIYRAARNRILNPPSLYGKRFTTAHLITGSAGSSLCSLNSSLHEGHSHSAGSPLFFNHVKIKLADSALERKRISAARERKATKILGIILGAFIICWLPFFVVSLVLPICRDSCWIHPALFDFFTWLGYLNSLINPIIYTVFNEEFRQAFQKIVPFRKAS

Compound | Ki [1] [nM] | Ki [2] [nM]
c1ccc2c(N3CCNCC3)cccc2c1 | 12 | –
Cc1[nH]c2ccc(O)cc2c1CCN | 860 | 915
CN1C[C@H](CO)C=C2c3cccc4[nH]cc(c34)C[C@H]21 | 1.19 | 0.63
CC[C@@H](CO)NC(=O)[C@@H]1C=C2c3cccc4c3c(cn4C)C[C@H]2N(C)C1 | 25 | 3.6
c1ccc2nc(N3CCNCC3)ccc2c1 [2-Piperazin-1-yl-quinoline (Quipazine)] | 1000 | 1000
O=C(CCCN1CCC2(CC1)C(=O)NCN2c1ccccc1)c1ccc(F)cc1 [8-[4-(4-fluorophenyl)-4-oxidanylidene-butyl]-1-phenyl-1,3,8-triazaspiro[4.5]decan-4-one] | > 10000 | 995
CC(C)NCC(O)COc1cccc2[nH]ccc12 (centres undefined) [LB-46] | 4900 | 4100
CCCN(CCC)CCc1c[nH]c2ccc(C(N)=O)cc12 [NN-DIPROP-5-CT] | 42 | 13
COc1cc(N)c(Cl)cc1C(=O)NC1CN2CCC1CC2 (centres undefined) [ZACOPRIDE,R] | > 10000 | > 10000
Clc1cccc(N2CCNCC2)c1 [mCPP] | 361 | 216
